How the values were obtained:
[1] = test system: antibodies in sera from SARS patients (sera 1a, 1b, 2, 6, 37, 62, London, SARS-yellow, SARS-green); format: binding, human; parameters: Binding of serum 6 to linear peptides of protein X1 of SARS-CoV Urbani / Binding of serum 37 to linear peptides of protein X1 of SARS-CoV Urbani / Binding of serum 6 to looped/cyclic peptide (PEPSCAN-ELISA) / Binding of serum 37 to looped/cyclic peptide (PEPSCAN-ELISA) / Binding of serum 37 to looped/cyclic peptides of protein X1 of SARS-CoV Urbani / Binding of serum 6 to linear peptides of protein X2 / Binding of serum 37 to linear peptides of protein X2 / Binding of serum 37 to looped/cyclic peptides of protein X2 of SARS-CoV Urbani / Binding of serum 6 to linear peptides of protein M of SARS-CoV Urbani / Binding of serum 37 to linear peptides of protein M of SARS-CoV Urbani / Binding of serum 6 to looped/cyclic peptides of protein M of SARS-CoV Urbani / Binding of serum 37 to looped/cyclic peptides of protein M of SARS-CoV Urbani / Binding of serum 6 to linear peptides of protein X3 of SARS-CoV Urbani / Binding of serum 37 to linear peptides of protein X3 of SARS-CoV Urbani / Binding of serum 37 to looped/cyclic peptides of protein X3 of SARS-CoV Urbani / Binding of serum 6 to linear peptides of protein X4 of SARS-CoV Urbani / Binding of serum 37 to linear peptides of protein X4 of SARS-CoV Urbani / Binding of serum 37 to looped/cyclic peptides of protein X4 of SARS-CoV Urbani / Binding of serum 6 to linear peptides of protein X5 of SARS-CoV Urbani / Binding of serum 37 to linear peptides of protein X5 of SARS-CoV Urbani / Binding of serum 37 to looped/cyclic peptides of protein X5 of SARS-CoV Urbani / Binding of serum 6 to linear peptides of protein N of SARS-CoV Urbani / Binding of serum 37 to linear peptides of protein N of SARS-CoV Urbani / Binding of serum 6 to linear peptide (PEPSCAN-ELISA) / Binding of serum 1a to looped/cyclic peptides of protein N of SARS-CoV Urbani / Binding of serum 1b to looped/cyclic peptides of protein N of SARS-CoV Urbani / Binding of serum 2 to looped/cyclic peptides of protein N of SARS-CoV Urbani / Binding of serum 6 to looped/cyclic peptides of protein N of SARS-CoV Urbani / Binding of serum 37 to looped/cyclic peptides of protein N of SARS-CoV Urbani / Binding of serum 62 to looped/cyclic peptides of protein N of SARS-CoV Urbani / Binding of serum London to looped/cyclic peptides of protein N of SARS-CoV Urbani / Binding of serum SARS-green to looped/cyclic peptides of protein N of SARS-CoV Urbani: unit not given here
[2] = test system: control sera (pooled serum of ten healthy LUMC hospital workers; commercial negative donor pooled serum from the Dutch bloodbank); format: binding, human; parameters: Binding of Control serum LUMC to linear peptides / Binding of Control serum Blood-bank to linear peptides / Binding of Control serum LUMC to looped peptides / Binding of Control Serum Blood-Bank to Looped peptides / Binding of Control serum LUMC to linear peptides of the protein M of SARS-CoV Urbani / Binding of Control serum Blood-bank to linear peptides of the protein M of SARS-CoV Urbani / Binding of Control serum LUMC to looped peptides of the protein M of SARS-CoV Urbani / Binding of Control Serum Blood-Bank to Looped peptides of the protein M of SARS-CoV Urbani: unit not given here
[3] = test system: rabbit serum obtained by immunizing a rabbit with the SARS-CoV strain Frankfurt 1; format: binding; parameters: Binding of a rabbit serum to linear peptides / Binding of a rabbit serum to looped peptides / Rabbit serum linear peptides / Rabbit serum looped peptides / Binding of a rabbit serum to linear peptides of protein N of SARS-CoV Urbani (Rabbit serum linear peptides) / Binding of a rabbit serum to looped/cyclic peptides of protein N of SARS-CoV Urbani (Rabbit serum looped peptides): unit not given here

Sequence | Binding of serum 1a to linear peptides of protein X1 of SARS-CoV Urbani [1] | Binding of serum 1a to looped/cyclic peptide (PEPSCAN-ELISA) [1] | Binding of serum 1b to linear peptides of protein X1 of SARS-CoV Urbani [1] | Binding of serum 1b to looped/cyclic peptide (PEPSCAN-ELISA) [1] | Binding of serum 2 to linear peptides of protein X1 of SARS-CoV Urbani [1] | Binding of serum 2 to looped/cyclic peptide (PEPSCAN-ELISA) [1] | Binding of serum 6 to linear peptides of protein X1 of SARS-CoV Urbani [1] | Binding of serum 6 to looped/cyclic peptide (PEPSCAN-ELISA) [1] | Binding of serum 37 to linear peptides of protein X1 of SARS-CoV Urbani [1] | Binding of serum 37 to looped/cyclic peptide (PEPSCAN-ELISA) [1] | Binding of serum 62 to linear peptides of protein X1 of SARS-CoV Urbani [1] | Binding of serum 62 to looped/cyclic peptide (PEPSCAN-ELISA) [1] | Binding of serum London to linear peptides of protein X1 of SARS-CoV Urbani [1] | Binding of serum London to looped/cyclic peptide (PEPSCAN-ELISA) [1] | Binding of serum SARS-green to linear peptides of protein X1 of SARS-CoV Urbani [1] | Binding of serum SARS-green to looped/cyclic peptide (PEPSCAN-ELISA) [1] | Binding of serum SARS-yellow to linear peptides of protein X1 of SARS-CoV Urbani [1] | Binding of serum SARS-yellow to looped/cyclic peptide (PEPSCAN-ELISA) [1] | Binding of Control Serum Blood-Bank to Looped peptides [2] | Binding of Control serum Blood-bank to linear peptides [2] | further results
YKGFQFICNLLLLFV | 0.9 | 0.3 | 0.8 | 0.0 | 0.9 | 0.0 | 0.9 | 0.3 | 0.7 | 0.2 | 1.0 | 0.3 | 0.8 | 0.2 | 0.4 | 0.3 | 0.6 | 0.0 | 0.4 | 1.0 | Binding of Control serum LUMC to linear peptides [2]: 0.8; Binding of Control serum LUMC to looped peptides [2]: 0.4; Binding of a rabbit serum to linear peptides [3]: 0.3; Binding of a rabbit serum to looped peptides [3]: 0.0
YLYALIYFLQCINAC | 0.7 | 0.4 | 0.5 | 0.2 | 0.5 | 0.3 | 0.5 | 0.2 | 0.6 | 0.4 | 0.5 | 0.4 | 0.4 | 0.2 | 0.2 | 0.1 | 0.3 | 0.2 | 0.5 | 0.5 | Binding of Control serum LUMC to linear peptides [2]: 0.6; Binding of Control serum LUMC to looped peptides [2]: 0.5; Binding of a rabbit serum to linear peptides [3]: 0.1; Binding of a rabbit serum to looped peptides [3]: 0.4

— patent publication US20070128217A1 (priority 2003, published 2007)
